Laboratory results reported in PubChem BioAssay (NCI).
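Test compounds were applied to cells in 96-well plates for 48 hours at 5 doses. At the GI50, growth is halved. TGI is the concentration that stops growth completely.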

How the values were obtained:
Assay in all cases: NCI-60 cell line screen, 48 h
[1] = tested on: SR leukemia
[2] = tested on: COLO 205 colon
[3] = tested on: UACC-257 melanoma
[4] = tested on: SK-MEL-5 melanoma
[5] = tested on: HCT-15 colon
[6] = tested on: MDA-MB-435
[7] = tested on: A549 NSCLC
[8] = tested on: IGROV1 ovarian
[9] = tested on: MCF7 breast
[10] = tested on: M14 melanoma
[11] = tested on: HT29 colon
[12] = tested on: U251 CNS
[13] = tested on: HL-60(TB) leukemia
[14] = tested on: HS 578T breast
[15] = tested on: UO-31 renal
[16] = tested on: SN12C renal
[17] = tested on: 786-0 renal
[18] = tested on: ACHN renal
[19] = tested on: OVCAR-5 ovarian
[20] = tested on: T-47D breast
[21] = tested on: OVCAR-3 ovarian
[22] = tested on: LOX IMVI melanoma
[23] = tested on: HCT-116 colon
[24] = tested on: MOLT-4 leukemia
[25] = tested on: SK-MEL-28 melanoma
[26] = tested on: NCI-H460 lung
[27] = tested on: SK-MEL-2 melanoma
[28] = tested on: HOP-62 NSCLC
[29] = tested on: CAKI-1 renal
[30] = tested on: SF-268 CNS
[31] = tested on: NCI-H23 lung
[32] = tested on: PC-3 prostate
[33] = tested on: MDA-MB-231 breast
[34] = tested on: UACC-62 melanoma
[35] = tested on: HCC-2998 colon
[36] = tested on: EKVX NSCLC
[37] = tested on: SF-295 CNS
[38] = tested on: RXF 393 renal
[39] = tested on: CCRF-CEM leukemia
[40] = tested on: HOP-92 NSCLC
[41] = tested on: SK-OV-3 ovarian
[42] = tested on: SNB-19 CNS
[43] = tested on: TK-10 renal
[44] = tested on: SF-539 CNS
[45] = tested on: NCI/ADR-RES ovarian
[46] = tested on: K-562 leukemia
[47] = tested on: SNB-75 CNS
[48] = tested on: NCI-H226 lung
[49] = tested on: KM12 colon
[50] = tested on: OVCAR-4 ovarian
[51] = tested on: A498 renal
[52] = tested on: SW-620 colon
[53] = tested on: BT-549 breast
[54] = tested on: DU-145 prostate
[55] = tested on: OVCAR-8 ovarian

`O=c1c2c(c3ccccc3n1-c1ccccc1)NC(=S)NC2c1ccc(Cl)cc1` (stereo not given) showed a GI50 [1] of 4.76 µM, a TGI [1] greater than 100 µM and a GI50 [2] of 8.09 µM. For the same molecule, the TGI [2] was 29.1 µM, the GI50 [3] was 5.9 µM and the TGI [3] was greater than 100 µM. For the same molecule, the GI50 [4] was 2.42 µM, the TGI [4] was 10.5 µM and the GI50 [5] was 2.1 µM. It also gave a TGI [5] of 26.8 µM, a GI50 [6] of 3.27 µM and a TGI [6] of 31 µM. The GI50 [7] was 4.25 µM, the TGI [7] was greater than 100 µM and the GI50 [8] was 4.57 µM. For the same molecule, the TGI [8] was 27.2 µM, the GI50 [9] was 4.75 µM and the TGI [9] was greater than 100 µM. The GI50 [10] was 3.19 µM, the TGI [10] was 16.1 µM and the GI50 [11] was 4.69 µM. For the same molecule, the TGI [11] was greater than 100 µM, the GI50 [12] was 2.04 µM and the TGI [12] was 24.8 µM. The GI50 [13] was 3.6 µM, the TGI [13] was 45 µM and the GI50 [14] was 1.85 µM. The TGI [14] was greater than 100 µM, the GI50 [15] was 3.22 µM and the TGI [15] was 42.7 µM. For the same molecule, the GI50 [16] was 3.83 µM, the TGI [16] was greater than 100 µM and the GI50 [17] was 3.94 µM. It also gave a TGI [17] of 24.4 µM, a GI50 [18] of 3.92 µM and a TGI [18] greater than 100 µM. It also gave a GI50 [19] of 8.8 µM, a TGI [19] of 86.4 µM and a GI50 [20] of 20 µM. For the same molecule, the TGI [20] was greater than 100 µM, the GI50 [21] was 2.86 µM and the TGI [21] was 15.6 µM. It also gave a GI50 [22] of 2.59 µM, a TGI [22] of 33.4 µM and a GI50 [23] of 1.96 µM. For the same molecule, the TGI [23] was 7.32 µM, the GI50 [24] was 4.17 µM and the TGI [24] was greater than 100 µM. It also gave a GI50 [25] of 5.73 µM, a TGI [25] of 32.5 µM and a GI50 [26] of 1.16 µM. The TGI [26] was 6.47 µM, the GI50 [27] was 3.62 µM and the TGI [27] was 32.4 µM. For the same molecule, the GI50 [28] was 4.83 µM, the TGI [28] was 56.3 µM and the GI50 [29] was 3.16 µM. The TGI [29] was 27.1 µM, the GI50 [30] was 3.28 µM and the TGI [30] was greater than 100 µM. It also gave a GI50 [31] of 2.74 µM, a TGI [31] of 50.7 µM and a GI50 [32] of 2.68 µM. It also gave a TGI [32] greater than 100 µM, a GI50 [33] of 3.67 µM and a TGI [33] of 37.6 µM. The GI50 [34] was 1.49 µM, the TGI [34] was 10.6 µM and the GI50 [35] was 2.2 µM. For the same molecule, the TGI [35] was 16.3 µM, the GI50 [36] was 2.91 µM and the TGI [36] was 94.4 µM. The GI50 [37] was 1.34 µM, the TGI [37] was 7.16 µM and the GI50 [38] was 5.34 µM. It also gave a TGI [38] of 25.5 µM, a GI50 [39] of 3.79 µM and a TGI [39] greater than 100 µM. The GI50 [40] was 2.38 µM, the TGI [40] was 19 µM and the GI50 [41] was 9.15 µM. It also gave a TGI [41] of 65 µM, a GI50 [42] of 4.07 µM and a TGI [42] greater than 100 µM. For the same molecule, the GI50 [43] was 9.62 µM, the TGI [43] was greater than 100 µM and the GI50 [44] was 2.37 µM. For the same molecule, the TGI [44] was 42.6 µM, the GI50 [45] was 10.1 µM and the TGI [45] was greater than 100 µM. It also gave a GI50 [46] of 4.04 µM, a TGI [46] greater than 100 µM and a GI50 [47] of 3.54 µM. It also gave a TGI [47] of 22.6 µM, a GI50 [48] of 5.36 µM and a TGI [48] of 37.4 µM. For the same molecule, the GI50 [49] was 1.88 µM, the TGI [49] was 11.7 µM and the GI50 [50] was 5.66 µM. For the same molecule, the TGI [50] was greater than 100 µM, the GI50 [51] was 2.92 µM and the TGI [51] was 12.5 µM. It also gave a GI50 [52] of 6.97 µM, a TGI [52] of 49.9 µM and a GI50 [53] of 3.73 µM. It also gave a TGI [53] of 26 µM, a GI50 [54] of 3 µM and a TGI [54] of 28.5 µM. For the same molecule, the GI50 [55] was 4.01 µM and the TGI [55] was greater than 100 µM.
